Experimental data as given in patent publication US7230131B2, “Carnitine-magnesium hydroxycitrate” (Lonza AG, priority 2000, dated 2007).
Like-named read-outs stand apart in the source and are kept apart here.

Key:
[1] = Hygroscopicity test: gravimetric moisture uptake on storage at 56% relative humidity, 25° C.; type: physicochemical; conditions: for weight gain (moisture uptake from the air): 25° C., granulated <0.8 mm, previously dried over phosphorus pentoxide, based on total sample weight, Citrate; for moisture uptake: previously dried to constant weight
Description: In a preferred embodiment, L-carnitine, magnesium hydroxide and citric acid are mixed in stoichiometric amounts, i.e. in a molar ratio of approximately 1:1:1. The types of these substances are preferably sufficiently pure, i.e. approved for the manufacture of food products or the preparation of pharmaceuticals, as are described, for example, in the European Pharmacopoeia. Anhydrous types are expediently used. To avoid an unwanted salt loading, the pure L-carnitine is preferably added to the mixture as neutral […] salt. Compared with previous methods of preparation, the hygroscopicity of the complex salt L-carnitine-magnesium citrate prepared in this way is reduced further. For example, the moisture uptake, determined by gravimetry in the way familiar to the skilled worker, of solid carnitine-Mg citrate prepared by the method of the invention and previously dried to constant weight under oil-pump vacuum or over phosphorus pentoxide is not more than 7% by weight after 48 h at 56% relative humidity (rH). This figure is not exceeded even after storage for 330 h. Based on the amount of carnitine or carnitine derivative present in the mixture, referred to within the scope of the invention as carnitine content based on free base, this corresponds to a moisture uptake of not more than 40% by weight. It is preferred for at least 80% of the carnitine-Mg citrate, based on the carnitine content in the mixture, to be in the form of complex salt in the mixture of the invention.
The product mixtures from example 1 and 2 granulated to a particle size of <0.8 mm using a FREEWIT screening granulator are stored at a relative humidity of 56% at 25° C. under constant test conditions for the stated times. The sample was previously dried to constant weight over phosphorus pentoxide. The moisture uptake from the air is determined by gravimetry. The weight gain is stated in percent based on the total weight of the sample.

citrate lyase = target: T1, citrate lyase (Homo sapiens, UniProt P53396); conditions: cited from earlier work
T1 sequence (P53396 1-1101): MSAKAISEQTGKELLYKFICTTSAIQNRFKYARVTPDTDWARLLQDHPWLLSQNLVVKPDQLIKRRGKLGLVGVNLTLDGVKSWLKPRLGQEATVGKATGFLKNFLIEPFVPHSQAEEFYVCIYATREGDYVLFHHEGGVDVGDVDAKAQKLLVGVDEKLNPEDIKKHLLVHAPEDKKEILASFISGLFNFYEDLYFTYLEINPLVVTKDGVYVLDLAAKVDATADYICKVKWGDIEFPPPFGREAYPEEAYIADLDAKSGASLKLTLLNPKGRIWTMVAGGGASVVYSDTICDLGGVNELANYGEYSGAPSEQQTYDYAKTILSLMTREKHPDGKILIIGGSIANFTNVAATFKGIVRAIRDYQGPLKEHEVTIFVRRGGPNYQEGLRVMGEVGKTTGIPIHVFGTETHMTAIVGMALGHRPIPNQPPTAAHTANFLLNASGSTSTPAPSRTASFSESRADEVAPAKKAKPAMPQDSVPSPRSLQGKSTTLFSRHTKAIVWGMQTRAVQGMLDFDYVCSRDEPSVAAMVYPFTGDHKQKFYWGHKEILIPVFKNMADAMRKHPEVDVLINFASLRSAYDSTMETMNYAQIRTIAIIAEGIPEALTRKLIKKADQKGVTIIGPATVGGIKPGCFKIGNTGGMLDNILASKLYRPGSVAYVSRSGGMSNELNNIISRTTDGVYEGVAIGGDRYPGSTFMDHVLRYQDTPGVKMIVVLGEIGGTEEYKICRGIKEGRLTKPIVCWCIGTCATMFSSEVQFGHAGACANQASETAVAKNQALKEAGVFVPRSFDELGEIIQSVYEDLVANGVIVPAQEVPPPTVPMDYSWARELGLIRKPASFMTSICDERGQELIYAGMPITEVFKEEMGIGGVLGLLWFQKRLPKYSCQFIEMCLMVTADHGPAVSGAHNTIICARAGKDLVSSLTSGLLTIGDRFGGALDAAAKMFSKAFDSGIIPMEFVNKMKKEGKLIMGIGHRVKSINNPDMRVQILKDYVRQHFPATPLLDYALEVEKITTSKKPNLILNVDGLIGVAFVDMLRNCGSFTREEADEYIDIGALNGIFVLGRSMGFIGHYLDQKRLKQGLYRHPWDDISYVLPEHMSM

[2] = relative humidity 56%, storage for 1 week; cited from earlier work
[3] = Weight gain of previously dried mixture under standard conditions; type: physicochemical; conditions: after 24 h under standard conditions
Experimental: The weight gain of the mixture of the invention which had previously been dried was, after 24 h under standard conditions, 0.82% by weight. At a relative humidity of 56%, the water uptake of the mixture determined by gravimetry was ≦10% by weight after 30 h, corresponding to about 30% by weight based on the carnitine content of the mixture.

[4] = Storage stability in relation to rearrangement of HCA to the lactone, standard test conditions; type: physicochemical; conditions: compared with known HCA salts; standard test conditions customary in the pharmaceutical sector
Description: The present invention further relates to carnitine-magnesium hydroxycitrate. This is a salt of low hygroscopicity and can be prepared by the present method through mixing magnesium hydroxide, hydroxycitric acid and carnitine or alkanoyl carnitine in the molar ratio 1:1:1. It is a neutral salt in the stoichiometric composition, in relation to the charge distribution and the ionizable functional groups. […] This involves a synergistic effect of the mixture in the form of a complex salt. Without wishing to be bound to the theory, it is possible that this effect is brought about by a better bioavailability of the complex salt. HCA is prone to spontaneous lactonization in aqueous solution and in the gastrointestinal tract. The complexation with Mg before preparation of a solution might have a stabilizing effect in relation to the unwanted rearrangement of the lactone and thus bring about much greater activity in cooperation with carnitine. […] It is also possible that a previously unrecognized stimulating effect in particular of magnesium, in the sense of that stated above concerning the mechanism of action of carnitine and hydroxycitrate, is involved. Allosterically regulated enzymes are often regulated by various factors such as, for example, also Mg cations. Magnesium is moreover an important cofactor for various enzymes or constituent of the holo enzyme. […]

[5] = storage time 4 h, 56% relative humidity
[6] = storage time 8 h, 56% relative humidity
[7] = storage time 24 h, 56% relative humidity
[8] = storage time 36 h, 56% relative humidity
[9] = storage time 48 h, 56% relative humidity
[10] = storage time 336 h, 56% relative humidity

Row | Compound | weight gain (moisture uptake from the air) [1, 5] [% by weight] | weight gain (moisture uptake from the air) [1, 6] [% by weight] | weight gain (moisture uptake from the air) [1, 7] [% by weight] | weight gain (moisture uptake from the air) [1, 8] [% by weight] | weight gain (moisture uptake from the air) [1, 9] [% by weight] | weight gain (moisture uptake from the air) [1, 10] [% by weight] | other results
1 | C[N+](C)(C)C[C@H](O)CC(=O)[O-].O=C([O-])CC(O)(CC(=O)[O-])C(=O)[O-].O=C([O-])CC(O)(CC(=O)[O-])C(=O)[O-].[Mg+2].[Mg+2].[Mg+2] [example 2, L-Carnitine-Magnesium Citrate] | 2.7 | 3.0 | 5.4 | 5.5 | 6.4 | 6.5 | 
2 | O=C(O)CC(O)(C(=O)O)C(O)C(=O)O (stereo not shown) [HCA, Hydroxycitric acid] |  |  |  |  |  |  | affinity of the enzyme relative to natural substrate citric acid (citrate lyase; fold higher than for citric acid): more than 100 times
3 | C[N+](C)(C)C[C@H](O)CC(=O)[O-].O=C([O-])CC(O)(CC(=O)[O-])C(=O)[O-].O=C([O-])CC(O)(CC(=O)[O-])C(=O)[O-].[Mg+2].[Mg+2].[Mg+2] [carnitine-Mg citrate, L-carnitine-magnesium citrate] |  |  |  |  |  |  | moisture uptake based on carnitine content (free base) ([1]; 56% relative humidity, based on amount of carnitine in the mixture): not more than 40 % by weight; moisture uptake ([1]; after 48 h at 56% relative humidity): not more than 7 % by weight; moisture uptake ([1]; after storage for 330 h at 56% relative humidity): not more than 7 % by weight
4 | C[N+](C)(C)C[C@H](O)CC(=O)[O-].O=C([O-])CC(O)(CC(=O)[O-])C(=O)[O-].O=C([O-])CC(O)(CC(=O)[O-])C(=O)[O-].[Mg+2].[Mg+2].[Mg+2] [reference, L-carnitine-magnesium citrate, reference compound] | 5.1 | 9.1 | 18.1 | 17.6 | 20.4 | 15.6 | water uptake [2]: 21 % by weight
5 | L-Carnitine-Magnesium (−)-Hydroxycitrate [Example 4] |  |  |  |  |  |  | weight gain [3]: 0.82 % by weight; water uptake based on the carnitine content of the mixture ([1]; after 30 h at relative humidity 56%): about 30 % by weight; water uptake ([1]; after 30 h at relative humidity 56%, gravimetry): ≤ 10 % by weight; storage stability in relation to rearrangement of HCA to the lactone [4]: improved storage stability
6 | C[N+](C)(C)C[C@H](O)CC(=O)[O-].O=C([O-])CC(O)(CC(=O)[O-])C(=O)[O-].O=C([O-])CC(O)(CC(=O)[O-])C(=O)[O-].[Mg+2].[Mg+2].[Mg+2] [example 1, L-Carnitine-Magnesium Citrate] | 2.0 | 2.2 | 4.6 | 4.4 | 5.2 | 5.1 | 
7 | O=C1C[C@@](O)(C(=O)O)[C@@H](C(=O)O)O1 [lactone derivative] |  |  |  |  |  |  | affinity of the enzyme compared with HCA (citrate lyase; by comparison with HCA): clear lower affinity
